# Activity calls are given as the source filed them. The calls are words filed in the database; no cut-off is given here.
# Tests used:
# [1] = molecular target: 72 kDa type IV collagenase (Homo sapiens) (UniProt P08253); experiment: Inhibition of MMP2 gelatinolytic activity in human HT1080 cells at upto 60 ug/ml by gelatin zymography relative to control; assay type: cell-based; settings: HT-1080
# [2] = tested on: HT-1080; experiment: Suppression of MMP2 expression in phorbol myristate acetate-stimulated human HT1080 cells by Western blotting relative to control; assay type: functional, cell-based
# [3] = molecular target: Matrix metalloproteinase-9 (Homo sapiens) (UniProt P14780); experiment: Inhibition of MMP9 gelatinolytic activity in human HT1080 cells at upto 60 ug/ml by gelatin zymography relative to control; assay type: cell-based; settings: HT-1080
# [4] = tested on: HT-1080; experiment: Cytotoxicity against human HT1080 cells assessed as cell viability at upto 60 ug/ml; assay type: cell-based
# [5] = tested on: HT-1080; experiment: Suppression of NF-kappaB p65 subunit expression in phorbol myristate acetate-stimulated human HT1080 cell nucleus by Western blotting relative to control; assay type: functional, cell-based
# [6] = tested on: HT-1080; experiment: Suppression of NF-kappaB p65 subunit expression in phorbol myristate acetate-stimulated human HT1080 cell cytoplasm by Western blotting relative to control; assay type: functional, cell-based
# [7] = molecular target: Matrix metalloproteinase-9 (Homo sapiens) (UniProt P14780); experiment: Inhibition of MMP9 in phorbol myristate acetate-stimulated human HT1080 cells by gelatin zymography relative to control; assay type: cell-based; settings: HT-1080
# [8] = tested on: HT-1080; experiment: Inhibition of NF-kappaB gene promoter activity in phorbol myristate acetate-stimulated human HT1080 cells at 60 ug/ml by luciferase reporter gene assay; assay type: cell-based
# [9] = molecular target: Matrix metalloproteinase-9 (Homo sapiens) (UniProt P14780); experiment: Inhibition of MMP9 gene promoter activity in phorbol myristate acetate-stimulated human HT1080 cells at 60 ug/ml by luciferase reporter gene assay relative to control; assay type: cell-based; settings: HT-1080
# [10] = molecular target: 72 kDa type IV collagenase (Homo sapiens) (UniProt P08253); experiment: Inhibition of MMP2 gene promoter activity in phorbol myristate acetate-stimulated human HT1080 cells at 60 ug/ml by luciferase reporter gene assay relative to control; assay type: cell-based; settings: HT-1080
# [11] = molecular target: 72 kDa type IV collagenase (Homo sapiens) (UniProt P08253); experiment: Inhibition of MMP2 gene promoter activity in phorbol myristate acetate-stimulated human HT1080 cells by luciferase reporter gene assay; assay type: cell-based; settings: HT-1080
# [12] = tested on: HT-1080; experiment: Inhibition of JNK expression in phorbol myristate acetate-stimulated human HT1080 cells at 60 ug/ml by Western blotting relative to control; assay type: functional, cell-based
# [13] = tested on: HT-1080; experiment: Suppression of AP1 c-FOS subunit expression in phorbol myristate acetate-stimulated human HT1080 cell cytoplasm by Western blotting relative to control; assay type: functional, cell-based
# [14] = molecular target: Transcription factor Jun (Homo sapiens) (UniProt P05412); experiment: Inhibition of AP1 gene promoter activity in phorbol myristate acetate-stimulated human HT1080 cells at 60 ug/ml by luciferase reporter gene assay; assay type: cell-based; settings: HT-1080
# [15] = molecular target: 72 kDa type IV collagenase (Homo sapiens) (UniProt P08253); experiment: Inhibition of MMP2 in phorbol myristate acetate-stimulated human HT1080 cells by gelatin zymography relative to control; assay type: cell-based; settings: HT-1080
# [16] = molecular target: Matrix metalloproteinase-9 (Homo sapiens) (UniProt P14780); experiment: Inhibition of MMP9 gene promoter activity in phorbol myristate acetate-stimulated human HT1080 cells by luciferase reporter gene assay; assay type: cell-based; settings: HT-1080
# [17] = molecular target: 72 kDa type IV collagenase (Homo sapiens) (UniProt P08253); experiment: Inhibition of MMP2 gelatinolytic activity in phorbol myristate acetate-stimulated human HT1080 cells at 60 ug/ml by gelatin zymography relative to control; assay type: cell-based; settings: HT-1080
# [18] = molecular target: 72 kDa type IV collagenase (Homo sapiens) (UniProt P08253); experiment: Reduction of gelatinolytic activity of MMP2 in phorbol myristate acetate-stimulated human HT1080 cells at 40 and 60 ug/ml; assay type: cell-based; settings: HT-1080
# [19] = tested on: HT-1080; experiment: Inhibition of p38 expression in phorbol myristate acetate-stimulated human HT1080 cells at 60 ug/ml by Western blotting relative to control; assay type: functional, cell-based
# [20] = tested on: HT-1080; experiment: Suppression of AP1 c-FOS subunit expression in phorbol myristate acetate-stimulated human HT1080 cell nucleus by Western blotting relative to control; assay type: functional, cell-based
# [21] = tested on: HT-1080; experiment: Inhibition of ERK expression in phorbol myristate acetate-stimulated human HT1080 cells at 60 ug/ml by Western blotting relative to control; assay type: functional; parameters: scale not given: the % may be the effect or the level left
# [22] = tested on: HT-1080; experiment: Suppression of TIMP1 expression in phorbol myristate acetate-stimulated human HT1080 cells by Western blotting relative to control; assay type: functional, cell-based
# [23] = molecular target: Matrix metalloproteinase-9 (Homo sapiens) (UniProt P14780); experiment: Inhibition of MMP9 gelatinolytic activity in phorbol myristate acetate-stimulated human HT1080 cells at 60 ug/ml by gelatin zymography relative to control; assay type: cell-based; settings: HT-1080
# [24] = tested on: HT-1080; experiment: Antiinvasive activity in human HT1080 cells at 20 ug/ml after 48 hrs; assay type: functional
# [25] = tested on: HT-1080; experiment: Suppression of TIMP2 expression in phorbol myristate acetate-stimulated human HT1080 cells by Western blotting relative to control; assay type: functional, cell-based
# [26] = tested on: HT-1080; experiment: Suppression of MMP9 expression in phorbol myristate acetate-stimulated human HT1080 cells by Western blotting relative to control; assay type: functional, cell-based
# [27] = tested on: HT-1080; experiment: Inhibition of cell migration in human HT1080 cells at 60 ug/ml; assay type: functional
# [28] = molecular target: Matrix metalloproteinase-9 (Homo sapiens) (UniProt P14780); experiment: Reduction of gelatinolytic activity of MMP9 in phorbol myristate acetate-stimulated human HT1080 cells at 40 and 60 ug/ml; assay type: cell-based; settings: HT-1080
# [29] = tested on: HT-1080; experiment: Antiinvasive activity in human HT1080 cells at 60 ug/ml after 48 hrs; assay type: functional, cell-based
# Chain of Matrix metalloproteinase-9 (Homo sapiens) (P14780 whole entry): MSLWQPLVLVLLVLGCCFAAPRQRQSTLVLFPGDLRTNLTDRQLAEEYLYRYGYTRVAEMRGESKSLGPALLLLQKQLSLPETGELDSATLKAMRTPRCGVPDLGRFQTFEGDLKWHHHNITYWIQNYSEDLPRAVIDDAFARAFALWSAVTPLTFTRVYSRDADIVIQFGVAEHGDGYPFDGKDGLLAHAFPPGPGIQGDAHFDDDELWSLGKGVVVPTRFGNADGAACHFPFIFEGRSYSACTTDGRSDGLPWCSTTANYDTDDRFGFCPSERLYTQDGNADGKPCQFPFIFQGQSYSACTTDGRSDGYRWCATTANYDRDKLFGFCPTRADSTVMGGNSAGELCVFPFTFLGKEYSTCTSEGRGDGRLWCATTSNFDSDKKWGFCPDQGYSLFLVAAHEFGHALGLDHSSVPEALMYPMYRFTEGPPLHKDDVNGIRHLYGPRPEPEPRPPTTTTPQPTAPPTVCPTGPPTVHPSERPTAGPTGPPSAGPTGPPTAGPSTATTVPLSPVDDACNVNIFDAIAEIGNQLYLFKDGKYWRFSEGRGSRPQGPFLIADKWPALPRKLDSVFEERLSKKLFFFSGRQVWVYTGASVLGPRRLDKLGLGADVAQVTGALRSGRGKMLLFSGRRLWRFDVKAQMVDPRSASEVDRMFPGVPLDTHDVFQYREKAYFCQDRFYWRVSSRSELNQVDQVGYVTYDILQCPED
# Chain of 72 kDa type IV collagenase (Homo sapiens) (P08253 110-660 limits assumed): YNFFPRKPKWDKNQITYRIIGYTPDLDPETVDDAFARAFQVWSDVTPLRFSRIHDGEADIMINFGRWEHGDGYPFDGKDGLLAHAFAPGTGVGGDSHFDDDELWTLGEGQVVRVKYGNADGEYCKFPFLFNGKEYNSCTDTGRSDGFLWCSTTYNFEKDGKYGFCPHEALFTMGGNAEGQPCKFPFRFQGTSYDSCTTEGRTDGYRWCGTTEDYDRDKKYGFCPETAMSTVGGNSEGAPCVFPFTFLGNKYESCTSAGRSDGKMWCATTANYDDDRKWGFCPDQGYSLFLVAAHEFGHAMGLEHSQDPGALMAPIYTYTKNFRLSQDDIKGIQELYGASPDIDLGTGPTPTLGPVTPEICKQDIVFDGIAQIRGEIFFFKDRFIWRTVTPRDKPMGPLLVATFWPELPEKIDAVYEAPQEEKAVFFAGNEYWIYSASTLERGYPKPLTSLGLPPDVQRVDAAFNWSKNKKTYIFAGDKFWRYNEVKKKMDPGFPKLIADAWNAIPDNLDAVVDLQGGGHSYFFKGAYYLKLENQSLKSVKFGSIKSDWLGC
# Chain of Transcription factor Jun (Homo sapiens) (P05412 whole entry): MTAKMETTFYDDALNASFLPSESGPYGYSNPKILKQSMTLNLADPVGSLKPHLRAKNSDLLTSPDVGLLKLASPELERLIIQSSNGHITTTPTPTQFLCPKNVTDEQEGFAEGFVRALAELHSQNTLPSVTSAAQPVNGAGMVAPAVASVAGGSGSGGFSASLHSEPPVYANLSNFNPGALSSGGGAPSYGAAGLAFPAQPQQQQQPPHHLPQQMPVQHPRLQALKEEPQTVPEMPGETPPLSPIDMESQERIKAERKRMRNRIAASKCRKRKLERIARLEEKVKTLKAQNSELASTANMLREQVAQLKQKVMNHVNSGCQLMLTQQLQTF
structure (smiles),measurement,setting,value
C[N+](C)(C)CC(O)CN[C@@H]1[C@@H](O)[C@H](O)[C@@H](CO)O[C@H]1O (stereo partly drawn),inhibition,[1],inactive
same,Activity,[2],Dose-dependent effect
same,inhibition,[3],inactive
same,Activity,[4],Non-toxic
same,Activity,[5],Active
same,Activity,[6],Active
same,inhibition,[7],Active
same,inhibition,[8],65%
same,fold change (FC),[9],3
same,fold change (FC),[10],3
same,inhibition,[11],Dose-dependent effect
same,inhibition,[12],Active
same,Activity,[13],Active
same,inhibition,[14],60%
same,inhibition,[15],Active
same,inhibition,[16],Dose-dependent effect
same,inhibition,[17],62%
same,Activity,[18],Active
same,inhibition,[19],Active
same,Activity,[20],Active
same,Activity,[21],60%
same,Activity,[22],inactive
same,inhibition,[23],50%
same,Activity,[24],50%
same,Activity,[25],inactive
same,Activity,[26],Dose-dependent effect
same,inhibition at 60 µg/mL,[27],70%
same,Activity,[28],Active
C[C@H]1c2cccc(O)c2C(=O)C2=C(O)[C@]3(O)C(=O)C(C(N)=O)=C(O)[C@@H](N(C)C)[C@@H]3[C@@H](O)[C@@H]21,inhibition,[1],inactive
same,inhibition,[3],inactive
N[C@H]1C(O)O[C@H](CO)[C@@H](O)[C@@H]1O (stereo partly drawn),Activity,[29],inactive
same,inhibition,[17],inactive
same,inhibition,[23],inactive
